Test system: IL-33-induced airway inflammation in RAG2 KO mice
Test: IL-33-induced airway inflammation in RAG2 KO mice, intranasal co-administration of CGRP
Format: in vivo, mouse
Conditions: IL-33+CGRP vs IL-33 alone
Excerpt: Animals. All experiments involving mice were approved by the Institutional Animal Care and Use Committee (IACUC) at Brigham and Women's Hospital. Mice were maintained in the animal facility at Brigham and Women's Hospital under specific pathogen-free conditions with food and water ad libitum and a 12-hour dark/light cycle. Mice were age- and sex-matched for experiments and were randomly assigned to experimental groups. C57BL/6J mice and RAG2 KO mice were purchased from the Jackson Laboratory. CGRP-GFP-hDTR mice were kindly provided by I. Chiu (Harvard Medical School, Boston).
Cytokine-induced airway inflammation. Mice received nasally 500 ng IL-25, 500 ng IL-33, 20 ug NMU or 6.65 ug CGRP diluted in DPBS for three consecutive days. For nasal administration, mice were lightly anesthetized with Isoflurane (Cat #07-893-1389; Patterson Veterinary). For induction of inflammatory ILC2s, mice received intraperitoneally 500 ng IL-25 for three consecutive days. One day after the last treatment, mice were euthanized and perfused with 8 ml cold PBS via the right heart ventricle. After exposure of the trachea, a small incision was made at the top of the trachea and a curved gavage needle was inserted. Lungs were washed with 1.5 ml cold PBS via the needle and the retrieved bronchoalveolar lavage fluid was centrifuged at 1300 rpm for 5 min at 4 C. After centrifugation, the supernatant was frozen at −20° C. and the cell pellet was resuspended in 250 ul complete medium and stored on ice until flow cytometric analysis. The post-caval lung lobe was transferred into 10% buffered formalin and stored at room temperature until paraffin embedding for histological analysis. The other lung lobes were dissociated using the lung dissociation kit (Cat #130-095-927; Miltenyi Biotec) and automated tissue dissociator (gentleMACS; Miltenyi Biotec) as described above with the adjustment that after running program lung_02, the single cell suspension was centrifuged at 1300 rpm for 5 min at 4° C. and 1 ml of the supernatant was frozen at −20° C. Single-cell suspension was resuspended in complete cell culture medium and stored on ice until further processing.
For cell counts, lung cells were transferred into FACS tubes and stained with 7AAD. Precision Count Beads (Cat #424902; BioLegend) were added according to manufacturer's instructions. Cells and beads were acquired on a BD LSRFortessa (BD Biosciences) and cell numbers were calculated based on number of acquired live (7AAD−) cells and number of acquired beads.
For flow cytometric analysis, lung cells were transferred into a 96 well V-bottom plate and stained with surface antibodies for 20 min at 4° C. in the dark. Cells were washed twice with DPBS containing 2% fetal bovine serum and transferred into 1.2 ml tubes for analysis by flow cytometry. For intracellular cytokine staining, cells were incubated in complete cell culture medium with 50 ng/ml phorbol 12-myristate 13-acetate (Sigma-Aldrich), 1 uM ionomycin (Sigma-Aldrich) and GolgiStop (Cat #554724; BD Biosciences) in a humidified incubator at 37° C. and 10% CO2. After 5 hours, cells were transferred into 96 well V-bottom plate, stained with Fixable Viability Dye eFluor 506 (Cat #65-0866-14; Thermo Fisher) and surface antibodies for 20 min at 4° C. in the dark and washed twice with DPBS containing 2% fetal bovine serum. Then, cells were incubated with BD Cytofix/Cytoperm Buffer (Cat #51-2090KZ; BD Biosciences) for 20 min, followed by a wash with BD Perm/Wash Buffer (Cat #51-2091KZ; BD Biosciences). Subsequently, cells were incubated with antibodies targeting intracellular proteins diluted in BD Perm/Wash Buffer for 20 min and after two wash steps, transferred into 1.2 ml tubes for analysis by flow cytometry. […]

CGRP: neuropeptide calcitonin gene-related peptide (encoded by Calca), ligand of the Ramp1/Calcrl receptor; given at 100 nM in vitro, 6.65 ug nasally
Il5 and Il13 transcripts in lung tissue: significantly reduced | concentration of IL-5 and IL-13 protein in lung homogenates and BALF: significantly reduced | eosinophil numbers in lung tissue and BALF: significantly reduced | frequency of IL-5-positive ILCs: no difference | frequency of IL-13-positive ILC2s: significantly lower | total numbers of lung ILCs: marked reduction | frequency of lung ILCs (intranasal, three consecutive days): non-significant trend towards a reduced frequency
